Test results as given in ChEMBL document CHEMBL4828739, “Study on the structure-activity relationship of dihydroartemisinin derivatives: Discovery, synthesis, and biological evaluation of dihydroartemisinin-bile acid conjugates as potential anticancer agents” (Eur J Med Chem, 2021).

Legend:
Format in all cases: ADME, organism-based
[1] = AUC (0 to infinity) in Sprague-Dawley rat plasma at 10 mg/kg, po by UPLC-MS/MS analysis; set-up: time infinity, route oral, dose 10 mg/kg
[2] = AUClast in Sprague-Dawley rat plasma at 10 mg/kg, po by UPLC-MS/MS analysis; set-up: route oral, time 0 - last, dose 10 mg/kg
[3] = Half life in Sprague-Dawley rat plasma at 10 mg/kg, po by UPLC-MS/MS analysis
[4] = AUClast in Sprague-Dawley rat plasma at 5 mg/kg, iv by UPLC-MS/MS analysis; set-up: route intravenous, time 0 - last, dose 5 mg/kg
[5] = MRT (0 to infinity) in Sprague-Dawley rat plasma at 5 mg/kg, iv by UPLC-MS/MS analysis
[6] = Cmax in Sprague-Dawley rat plasma at 10 mg/kg, po by UPLC-MS/MS analysis; set-up: route oral, dose 10 mg/kg
[7] = AUC (0 to infinity) in Sprague-Dawley rat plasma at 5 mg/kg, iv by UPLC-MS/MS analysis; set-up: route intravenous, time infinity, dose 5 mg/kg
[8] = Half life in Sprague-Dawley rat plasma at 5 mg/kg, iv by UPLC-MS/MS analysis
[9] = Volume of distribution at steady state in Sprague-Dawley rat plasma at 5 mg/kg, iv by UPLC-MS/MS analysis; conditions: read-out: Vdss
[10] = Oral bioavailability in Sprague-Dawley rat plasma at 10 mg/kg by UPLC-MS/MS analysis
[11] = Tmax in Sprague-Dawley rat plasma at 10 mg/kg, po by UPLC-MS/MS analysis
[12] = Clearance in Sprague-Dawley rat plasma at 5 mg/kg, iv by UPLC-MS/MS analysis

C[C@H]1[C@@H](O[C@@H]2CC[C@@]3(C)[C@@H](C2)C[C@H](O)[C@@H]2[C@@H]3CC[C@]3(C)[C@@H]([C@H](C)CCC(=O)O)CC[C@@H]23)O[C@@H]2O[C@]3(C)CC[C@H]4[C@H](C)CC[C@@H]1[C@@]24OO3
AUC(0-inf) [1]: 4430 ng·h/mL | AUC(0-t) [2]: 4190 ng·h/mL | half-life [3]: 49.4 min | AUC(0-t) [4]: 10200 ng·h/mL | MRT inf [5]: 42.2 min | Cmax [6]: 1110 ng/mL | AUC(0-inf) [7]: 10200 ng·h/mL | half-life [8]: 46.4 min | Vd [9]: 0.346 L/kg | bioavailability [10]: 20.6% | Tmax [11]: 100 min | clearance [12]: 8.2 mL/min/kg
